Where two headings read alike, the source gives them in different places.
Assays:
HIPK3 [1] = target: T1, HIPK3 (Homo sapiens, UniProt Q9H422); assay: ([…] Å) and SPR; kinase assay IC50 […]; assay type: binding
T1 construct: kinase domain, residues 159–562

HIPK2 [2] = target: T2, HIPK2 (Homo sapiens, UniProt Q9H2X6); assay: SPR single-cycle kinetics; nanoDSF; kinase assay IC50 […]; assay type: binding
T2 construct: residues 160–563

HIPK3 [3] = target: T1, HIPK3; assay: biochemical; design: nanoDSF thermal shift, Prometheus NT.48, 5 uM protein, ligand-induced melting temperature change versus buffer or DMSO control; details: read-out: ΔTm to control (°C)
Method: (§1) Nano-differential scanning fluorimetry measurements were performed for the determination of thermal protein stability using a Prometheus NT.48 (NanoTemper) device operating at the two wavelengths λ = 330 and 350 nm. […] The thermal stability was monitored from 20 to 70 °C at a heating rate of 1.5 °C/min using the PR.ThermControl software. […] Kinases were immobilized to the chip surface by amine coupling. […] Dissociation constants were determined based on fits applying a 1:1 interaction model. b Thermal protein stability measurements were performed using the NanoDSF technique. […] For raw data see Supplementary Table 3. Source data are provided as a Source Data file.

DYRK1A = target: T3, DYRK1A (Homo sapiens, UniProt Q13627); assay: biochemical; design: nanoDSF thermal shift, Prometheus NT.48, 5 uM protein, ligand-induced melting temperature change versus buffer or DMSO control; details: for ΔTm at 1 µM / ΔTm at 10 µM / ΔTm at 100 µM: read-out: ΔTm to control (°C); for ΔTm to control (°C): binder
T3 construct: kinase domain, residues 127–485
Method: as §1

HIPK1 [4] = target: T4, HIPK1 (Homo sapiens, UniProt Q86Z02); assay: biochemical; design: nanoDSF thermal shift, Prometheus NT.48, 5 uM protein, ligand-induced melting temperature change versus buffer or DMSO control; details: read-out: ΔTm to control (°C)
T4 construct: residues 154-554
Method: as §1

HIPK2 [5] = target: T2, HIPK2; assay: biochemical; design: nanoDSF thermal shift, Prometheus NT.48, 5 uM protein, ligand-induced melting temperature change versus buffer or DMSO control; details: read-out: ΔTm to control (°C)
Method: as §1

Cdk4 = target: T5, Cdk4 (Homo sapiens, UniProt P11802); assay: biochemical; design: nanoDSF thermal shift, Prometheus NT.48, 5 uM protein, ligand-induced melting temperature change versus buffer or DMSO control; details: read-out: ΔTm to control (°C)
T5 construct: full-length Cdk4 (residues 1–303) with Cyclin D3 (residues 1–292); with Cyclin D3
Method: as §1

Cdk9 = target: T6, Cdk9 (Homo sapiens, UniProt P50750); assay: biochemical; design: nanoDSF thermal shift, Prometheus NT.48, 5 uM protein, ligand-induced melting temperature change versus buffer or DMSO control; details: read-out: ΔTm to control (°C)
T6 construct: full-length Cdk9 (residues 1–372) with Cyclin T1 (residues 1–272); with Cyclin T1
Method: as §1

HIPK1 [6] = target: T4, HIPK1; assay: radioactive in vitro kinase assay; nanoDSF shift +[…] °C; assay type: biochemical
HIPK3 [7] = target: T1, HIPK3; assay: radioactive in vitro kinase assay, His-c-Myc substrate; assay type: biochemical

T2 sequence (Q9H2X6 160-563): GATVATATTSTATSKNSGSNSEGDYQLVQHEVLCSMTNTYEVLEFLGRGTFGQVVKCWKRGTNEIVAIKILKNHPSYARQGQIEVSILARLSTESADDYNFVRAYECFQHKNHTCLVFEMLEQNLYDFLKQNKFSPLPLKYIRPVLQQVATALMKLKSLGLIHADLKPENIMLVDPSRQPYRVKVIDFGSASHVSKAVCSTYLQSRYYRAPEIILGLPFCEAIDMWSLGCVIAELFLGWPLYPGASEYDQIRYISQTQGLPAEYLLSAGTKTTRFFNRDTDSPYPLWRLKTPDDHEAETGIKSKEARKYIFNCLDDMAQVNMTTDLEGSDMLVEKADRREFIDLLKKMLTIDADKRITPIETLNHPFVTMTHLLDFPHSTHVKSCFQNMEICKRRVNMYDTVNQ
T1 sequence (Q9H422 159-562): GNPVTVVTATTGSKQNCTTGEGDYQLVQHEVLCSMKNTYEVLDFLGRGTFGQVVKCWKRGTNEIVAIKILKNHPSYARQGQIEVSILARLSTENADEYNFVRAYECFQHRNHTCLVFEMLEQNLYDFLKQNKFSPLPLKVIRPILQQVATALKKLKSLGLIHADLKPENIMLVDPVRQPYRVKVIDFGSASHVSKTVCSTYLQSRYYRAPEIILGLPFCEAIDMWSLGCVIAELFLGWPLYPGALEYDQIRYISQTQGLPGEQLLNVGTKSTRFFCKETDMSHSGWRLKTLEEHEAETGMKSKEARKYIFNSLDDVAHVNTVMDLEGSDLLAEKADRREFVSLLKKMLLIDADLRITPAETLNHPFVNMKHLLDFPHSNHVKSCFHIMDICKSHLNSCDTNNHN
T4 sequence (Q86Z02 154-554): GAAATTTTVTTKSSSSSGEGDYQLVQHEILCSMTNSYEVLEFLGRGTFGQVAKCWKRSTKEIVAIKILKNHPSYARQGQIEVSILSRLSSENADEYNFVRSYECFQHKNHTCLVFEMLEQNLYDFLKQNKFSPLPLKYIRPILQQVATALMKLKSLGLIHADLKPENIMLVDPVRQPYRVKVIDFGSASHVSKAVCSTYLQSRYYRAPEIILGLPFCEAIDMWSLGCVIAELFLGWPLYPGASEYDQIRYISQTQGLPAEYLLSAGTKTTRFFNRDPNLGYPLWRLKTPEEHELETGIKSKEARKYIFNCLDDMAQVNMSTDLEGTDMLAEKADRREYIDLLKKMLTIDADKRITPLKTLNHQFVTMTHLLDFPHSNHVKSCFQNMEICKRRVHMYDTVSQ
T6 sequence (P50750 whole entry, the tested form may be a part): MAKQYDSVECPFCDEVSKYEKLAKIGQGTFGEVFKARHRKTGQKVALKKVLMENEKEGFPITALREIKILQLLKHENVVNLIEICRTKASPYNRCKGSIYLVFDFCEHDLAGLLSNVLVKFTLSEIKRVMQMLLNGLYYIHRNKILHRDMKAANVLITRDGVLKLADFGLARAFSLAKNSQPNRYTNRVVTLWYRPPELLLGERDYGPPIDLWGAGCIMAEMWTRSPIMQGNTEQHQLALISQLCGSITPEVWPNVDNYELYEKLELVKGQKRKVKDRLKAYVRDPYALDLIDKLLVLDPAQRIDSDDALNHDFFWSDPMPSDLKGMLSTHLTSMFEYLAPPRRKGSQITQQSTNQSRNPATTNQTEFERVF
T6 sequence (O60563 1-272 partner): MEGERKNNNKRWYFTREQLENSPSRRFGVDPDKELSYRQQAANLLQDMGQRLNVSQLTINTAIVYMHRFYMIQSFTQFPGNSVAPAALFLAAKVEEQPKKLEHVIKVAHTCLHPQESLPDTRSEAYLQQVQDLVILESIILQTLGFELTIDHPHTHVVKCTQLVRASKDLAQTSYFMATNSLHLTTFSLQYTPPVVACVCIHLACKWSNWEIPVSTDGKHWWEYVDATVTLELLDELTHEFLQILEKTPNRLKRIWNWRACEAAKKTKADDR
T5 sequence (P11802 whole entry, the tested form may be a part): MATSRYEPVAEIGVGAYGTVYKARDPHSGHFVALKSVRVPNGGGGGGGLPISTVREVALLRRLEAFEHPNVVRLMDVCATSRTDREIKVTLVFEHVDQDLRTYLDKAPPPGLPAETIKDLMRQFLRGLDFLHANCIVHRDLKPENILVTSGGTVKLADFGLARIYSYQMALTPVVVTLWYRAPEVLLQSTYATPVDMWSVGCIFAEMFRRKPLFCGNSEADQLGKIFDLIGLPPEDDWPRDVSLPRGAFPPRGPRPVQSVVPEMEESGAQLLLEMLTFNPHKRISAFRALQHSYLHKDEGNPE
T5 sequence (P30281 whole entry partner, the tested form may be a part): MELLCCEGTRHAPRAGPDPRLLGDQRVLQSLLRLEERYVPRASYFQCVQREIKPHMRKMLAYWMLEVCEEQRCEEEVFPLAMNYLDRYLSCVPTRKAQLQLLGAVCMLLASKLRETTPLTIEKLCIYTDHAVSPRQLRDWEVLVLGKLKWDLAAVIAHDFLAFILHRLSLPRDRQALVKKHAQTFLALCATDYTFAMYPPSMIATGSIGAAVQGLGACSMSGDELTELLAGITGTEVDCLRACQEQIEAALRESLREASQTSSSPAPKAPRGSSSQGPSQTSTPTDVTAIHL

Molecule `CCN1CCN(Cc2ccc(Nc3ncc(F)c(-c4cc(F)c5nc(C)n(C(C)C)c5c4)n3)nc2)CC1` [abemaciclib] has a Kd (HIPK3 [1]) of 0.8 nM, a Kd (HIPK2 [2]) of 0.8 nM and a ΔTm at 1 µM (HIPK3 [3]) of 0.2 °C. The ΔTm at 10 µM (HIPK3 [3]) was 5.3 °C, the ΔTm at 100 µM (HIPK3 [3]) was 7.4 °C and the ΔTm at 1 µM (DYRK1A) was 0.6 °C. It also gave a ΔTm at 10 µM (DYRK1A) of 3.1 °C, a ΔTm at 100 µM (DYRK1A) of 5.2 °C and a ΔTm at 1 µM (HIPK1 [4]) of 0.4 °C. For the same molecule, the ΔTm at 10 µM (HIPK1 [4]) was 6.4 °C, the ΔTm at 100 µM (HIPK1 [4]) was 8.7 °C and the ΔTm at 1 µM (HIPK2 [5]) was 1.5 °C. It also gave a ΔTm at 10 µM (HIPK2 [5]) of 4.7 °C, a ΔTm at 100 µM (HIPK2 [5]) of 7.2 °C and a ΔTm at 1 µM (Cdk4) of 4.1 °C. For the same molecule, the ΔTm at 100 µM (Cdk4) was 7.9 °C, the ΔTm at 1 µM (Cdk9) was 0.6 °C and the ΔTm at 10 µM (Cdk9) was 2.4 °C. It also gave an IC50 (HIPK1 [6]) of 4530 nM.
With `Nc1ncnc2c1ncn2[C@@H]1O[C@H](COP(=O)(O)OP(=O)(O)OP(=O)(O)O)[C@@H](O)[C@H]1O` [ATP] the “ΔTm to control (°C)” value (DYRK1A; 1 uM) was -0.2 °C, the “ΔTm to control (°C)” value (DYRK1A; 10 uM) was “+0.1 °C” and the “ΔTm to control (°C)” value (DYRK1A; 100 uM) was 0.0 °C.
`Nc1ncnc2c1ncn2[C@@H]1O[C@H](COP(=O)(O)OP(=O)(O)O)[C@@H](O)[C@H]1O` [ADP] showed a ΔTm at 1 µM (DYRK1A) of -0.1 °C, a ΔTm at 10 µM (DYRK1A) of 0 °C and a ΔTm at 100 µM (DYRK1A) of -0.1 °C.
In the case of `CN(C)C[C@H]1CC[C@H](N2C(=O)NCc3cnc4ccc(-c5cc(Cl)c(O)c(Cl)c5)cc4c32)CC1` [HTH-01-091], the IC50 (HIPK3 [7]; read-out: IC50) is reported as 1600 nM.
Work on `O=C1NC(=O)/C(=C/c2ccc3nccc(-c4ccncc4)c3c2)S1` [GSK1059615] yielded an IC50 (HIPK3 [7]) of 1080 nM.

Source: publication PMC8595372 (Nature Communications, 2021)
